One block for each compound: values may come before it. Calls of active or inactive are those of the source.
Experiments:
[1] = target: T1, Nuclear receptor subfamily 0 group B member 1 (Homo sapiens, UniProt P51843); experiment: Luminescence-based cell-based high throughput dose response assay for inhibitors of the orphan nuclear receptor subfamily 0, group B, member 1 (DAX1; NR0B1). [Related pubchem assays (depositor defined):AID504766, AID504790]; type: functional
T1 sequence (P51843 whole entry): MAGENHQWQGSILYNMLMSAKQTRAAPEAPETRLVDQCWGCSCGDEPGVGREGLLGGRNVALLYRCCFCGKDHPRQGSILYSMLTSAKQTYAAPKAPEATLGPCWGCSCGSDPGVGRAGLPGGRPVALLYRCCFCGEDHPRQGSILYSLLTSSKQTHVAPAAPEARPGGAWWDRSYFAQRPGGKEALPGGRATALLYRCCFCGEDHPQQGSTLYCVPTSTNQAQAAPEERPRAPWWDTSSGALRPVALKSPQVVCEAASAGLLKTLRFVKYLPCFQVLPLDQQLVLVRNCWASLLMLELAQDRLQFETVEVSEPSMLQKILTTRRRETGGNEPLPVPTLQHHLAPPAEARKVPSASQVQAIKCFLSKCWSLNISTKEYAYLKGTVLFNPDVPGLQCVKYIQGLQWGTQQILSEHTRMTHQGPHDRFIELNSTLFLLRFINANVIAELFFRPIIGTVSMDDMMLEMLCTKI

HEK293 [2] = experiment: cells; type: functional, cell-based; settings: Homo sapiens
[3] = target: T2, Mannose-6-phosphate isomerase (Homo sapiens, UniProt P34949); experiment: phosphomannose isomerase inhibition – biochemical, fluorescence intensity, confirmation (AID 1535)
T2 sequence (P34949 whole entry): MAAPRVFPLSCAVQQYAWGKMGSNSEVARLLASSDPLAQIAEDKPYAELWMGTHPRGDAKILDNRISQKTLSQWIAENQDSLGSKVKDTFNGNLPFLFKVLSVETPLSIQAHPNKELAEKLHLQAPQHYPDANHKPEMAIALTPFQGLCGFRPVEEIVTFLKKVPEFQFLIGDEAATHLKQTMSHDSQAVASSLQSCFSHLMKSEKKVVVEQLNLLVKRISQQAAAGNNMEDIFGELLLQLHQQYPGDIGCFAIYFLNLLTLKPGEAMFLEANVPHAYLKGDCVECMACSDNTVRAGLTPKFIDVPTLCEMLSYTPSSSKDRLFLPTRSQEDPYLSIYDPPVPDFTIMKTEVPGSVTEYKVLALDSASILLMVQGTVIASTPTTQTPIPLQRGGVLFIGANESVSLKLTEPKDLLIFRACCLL

Phosphomannomutase 2 = target: T3, Phosphomannomutase 2 (Homo sapiens, UniProt O15305); experiment: Counter screen SAR assay for PMM2 inhibitors via a fluorescence intensity assay. [Related pubchem assays (depositor defined):AID1545, AID1574]
T3 sequence (O15305 whole entry): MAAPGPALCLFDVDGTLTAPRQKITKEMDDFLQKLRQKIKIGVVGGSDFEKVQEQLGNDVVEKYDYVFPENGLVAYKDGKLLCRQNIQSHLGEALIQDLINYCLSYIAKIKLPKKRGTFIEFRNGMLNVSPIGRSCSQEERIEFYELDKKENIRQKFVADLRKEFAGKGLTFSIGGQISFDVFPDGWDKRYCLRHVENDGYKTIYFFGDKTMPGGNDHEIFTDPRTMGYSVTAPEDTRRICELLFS

[4] = target: T4, Alkaline phosphatase, tissue-nonspecific isozyme (Homo sapiens, UniProt P05186); experiment: TNAP enzyme inhibition by screening hits, dose response, selectivity assay for mouse IAP inhibitor project, biochemical, human TNAP, uHTS hits (AID 488906); type: functional
T4 sequence (P05186 whole entry): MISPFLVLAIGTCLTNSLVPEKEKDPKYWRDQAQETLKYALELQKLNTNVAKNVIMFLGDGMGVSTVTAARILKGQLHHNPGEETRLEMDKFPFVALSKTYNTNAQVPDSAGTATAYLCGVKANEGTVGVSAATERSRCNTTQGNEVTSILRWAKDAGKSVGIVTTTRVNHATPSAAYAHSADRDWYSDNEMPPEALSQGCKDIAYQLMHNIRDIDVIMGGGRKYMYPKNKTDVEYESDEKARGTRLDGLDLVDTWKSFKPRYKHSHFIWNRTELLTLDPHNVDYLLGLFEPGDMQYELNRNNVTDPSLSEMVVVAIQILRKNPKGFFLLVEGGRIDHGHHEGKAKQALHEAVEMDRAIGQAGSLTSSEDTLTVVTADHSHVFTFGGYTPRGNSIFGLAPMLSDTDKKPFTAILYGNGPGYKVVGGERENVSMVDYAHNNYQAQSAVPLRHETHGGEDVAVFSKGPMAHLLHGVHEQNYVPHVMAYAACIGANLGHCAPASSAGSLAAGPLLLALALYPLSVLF

[5] = target: Intestinal-type alkaline phosphatase (Mus musculus, UniProt P24822); experiment: PubChem AID 488785; type: functional
Chain of Intestinal-type alkaline phosphatase (Mus musculus, UniProt P24822) (P24822 whole entry): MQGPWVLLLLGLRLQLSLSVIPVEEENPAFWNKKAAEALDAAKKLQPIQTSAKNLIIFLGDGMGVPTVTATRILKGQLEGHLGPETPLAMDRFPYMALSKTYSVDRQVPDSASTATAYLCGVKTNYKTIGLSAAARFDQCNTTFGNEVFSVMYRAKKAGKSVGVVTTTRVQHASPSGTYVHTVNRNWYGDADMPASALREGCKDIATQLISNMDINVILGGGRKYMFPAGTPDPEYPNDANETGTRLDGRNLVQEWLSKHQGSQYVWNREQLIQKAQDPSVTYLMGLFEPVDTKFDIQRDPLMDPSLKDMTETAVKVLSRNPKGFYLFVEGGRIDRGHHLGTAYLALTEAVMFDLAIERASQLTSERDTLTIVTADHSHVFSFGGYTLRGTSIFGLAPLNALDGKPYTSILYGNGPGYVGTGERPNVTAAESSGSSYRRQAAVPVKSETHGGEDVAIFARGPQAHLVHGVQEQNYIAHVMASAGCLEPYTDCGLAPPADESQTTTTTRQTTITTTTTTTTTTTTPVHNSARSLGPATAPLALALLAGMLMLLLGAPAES

[6] = target: T2, Mannose-6-phosphate isomerase; experiment: MPI enzyme activity inhibition – biochemical, fluorescence intensity, coupled assay, primary screen (AID 1209)
[7] = target: Intestinal-type alkaline phosphatase (Homo sapiens, UniProt P09923); experiment: inhibition of human intestinal alkaline phosphatase – biochemical, dose response (AID 488876); type: functional
Chain of Intestinal-type alkaline phosphatase (Homo sapiens, UniProt P09923) (P09923 whole entry): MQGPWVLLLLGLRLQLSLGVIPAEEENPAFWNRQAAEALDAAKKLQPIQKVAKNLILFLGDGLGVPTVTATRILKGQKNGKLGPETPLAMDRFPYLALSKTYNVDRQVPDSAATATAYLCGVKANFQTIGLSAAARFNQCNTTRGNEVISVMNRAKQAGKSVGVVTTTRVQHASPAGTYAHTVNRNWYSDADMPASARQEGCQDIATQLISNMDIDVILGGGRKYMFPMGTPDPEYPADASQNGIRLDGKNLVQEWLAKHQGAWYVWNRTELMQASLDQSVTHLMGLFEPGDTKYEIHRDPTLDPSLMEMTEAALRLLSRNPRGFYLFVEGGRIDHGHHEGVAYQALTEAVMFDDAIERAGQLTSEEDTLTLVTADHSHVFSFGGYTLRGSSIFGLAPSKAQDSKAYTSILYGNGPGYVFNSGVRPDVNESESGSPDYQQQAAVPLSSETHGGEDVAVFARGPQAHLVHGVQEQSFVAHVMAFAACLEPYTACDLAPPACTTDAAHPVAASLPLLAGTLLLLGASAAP

HEK293 [8] = experiment: cells; settings: Homo sapiens
HEK293 [9] = experiment: cells; settings: Homo sapiens; remark: listed apart in the source
[10] = target: Ras and Rab interactor 1/Tyrosine-protein kinase ABL1 (Homo sapiens, UniProt P00519+Q13671); type: functional;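 note: biochemical TR-FRET dose-response test measuring inhibition of binding between Rin1 and Abl proteins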
[11] = target: Tyrosine-protein kinase JAK3 (Homo sapiens, UniProt P52333); type: functional
Chain of Tyrosine-protein kinase JAK3 (P52333 whole entry): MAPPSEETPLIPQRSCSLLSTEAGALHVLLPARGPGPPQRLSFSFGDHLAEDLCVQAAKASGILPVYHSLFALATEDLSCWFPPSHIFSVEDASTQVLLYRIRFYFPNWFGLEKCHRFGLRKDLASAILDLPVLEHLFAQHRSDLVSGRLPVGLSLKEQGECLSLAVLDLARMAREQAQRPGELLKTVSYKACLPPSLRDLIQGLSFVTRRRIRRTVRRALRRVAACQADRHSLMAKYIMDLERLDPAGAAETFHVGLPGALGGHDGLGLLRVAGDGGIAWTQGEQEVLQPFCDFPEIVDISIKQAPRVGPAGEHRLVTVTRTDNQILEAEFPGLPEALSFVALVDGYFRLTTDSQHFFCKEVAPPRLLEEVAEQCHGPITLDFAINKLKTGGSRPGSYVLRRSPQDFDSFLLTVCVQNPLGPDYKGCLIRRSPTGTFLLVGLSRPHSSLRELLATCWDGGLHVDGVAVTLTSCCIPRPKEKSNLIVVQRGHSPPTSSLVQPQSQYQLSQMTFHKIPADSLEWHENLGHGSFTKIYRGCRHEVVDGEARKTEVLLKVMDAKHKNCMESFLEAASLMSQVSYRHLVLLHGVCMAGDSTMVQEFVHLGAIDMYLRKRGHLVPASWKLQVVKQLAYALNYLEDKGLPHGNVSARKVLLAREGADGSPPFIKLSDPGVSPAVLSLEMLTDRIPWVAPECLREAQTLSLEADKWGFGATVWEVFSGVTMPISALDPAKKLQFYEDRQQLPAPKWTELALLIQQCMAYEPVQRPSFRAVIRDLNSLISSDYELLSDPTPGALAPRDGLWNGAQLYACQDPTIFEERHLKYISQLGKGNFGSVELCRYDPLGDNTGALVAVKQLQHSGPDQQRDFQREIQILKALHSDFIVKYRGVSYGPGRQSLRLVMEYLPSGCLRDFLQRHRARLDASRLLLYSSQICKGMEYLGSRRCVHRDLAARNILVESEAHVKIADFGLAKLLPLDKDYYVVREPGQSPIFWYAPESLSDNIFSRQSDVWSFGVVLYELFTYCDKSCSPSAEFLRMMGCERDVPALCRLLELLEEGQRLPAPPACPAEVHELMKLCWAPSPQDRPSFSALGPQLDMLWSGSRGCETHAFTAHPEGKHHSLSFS

[12] = target: Calcium/calmodulin-dependent protein kinase type II subunit alpha (Homo sapiens, UniProt Q9UQM7); experiment: Navigating the Kinome. Panel member name: CAMK2A; type: functional
Chain of Calcium/calmodulin-dependent protein kinase type II subunit alpha (Q9UQM7 whole entry): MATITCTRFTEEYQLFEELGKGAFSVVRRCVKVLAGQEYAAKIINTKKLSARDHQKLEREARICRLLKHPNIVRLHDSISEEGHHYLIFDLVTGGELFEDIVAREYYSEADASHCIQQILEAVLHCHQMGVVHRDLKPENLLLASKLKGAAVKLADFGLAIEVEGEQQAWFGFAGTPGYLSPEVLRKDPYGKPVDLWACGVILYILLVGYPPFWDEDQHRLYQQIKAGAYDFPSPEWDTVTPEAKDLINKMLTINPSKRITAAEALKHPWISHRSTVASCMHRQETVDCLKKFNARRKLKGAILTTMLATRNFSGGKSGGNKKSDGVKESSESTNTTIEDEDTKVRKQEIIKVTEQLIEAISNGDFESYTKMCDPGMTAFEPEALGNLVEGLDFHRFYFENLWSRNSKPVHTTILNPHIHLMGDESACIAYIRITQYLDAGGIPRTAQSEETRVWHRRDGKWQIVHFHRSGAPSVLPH

[13] = target: BDNF/NT-3 growth factors receptor (Homo sapiens, UniProt Q16620); type: functional;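 note: NTRK2 measured as one member of a broad kinome-wide kinase profiling panel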
Chain of BDNF/NT-3 growth factors receptor (Q16620 whole entry): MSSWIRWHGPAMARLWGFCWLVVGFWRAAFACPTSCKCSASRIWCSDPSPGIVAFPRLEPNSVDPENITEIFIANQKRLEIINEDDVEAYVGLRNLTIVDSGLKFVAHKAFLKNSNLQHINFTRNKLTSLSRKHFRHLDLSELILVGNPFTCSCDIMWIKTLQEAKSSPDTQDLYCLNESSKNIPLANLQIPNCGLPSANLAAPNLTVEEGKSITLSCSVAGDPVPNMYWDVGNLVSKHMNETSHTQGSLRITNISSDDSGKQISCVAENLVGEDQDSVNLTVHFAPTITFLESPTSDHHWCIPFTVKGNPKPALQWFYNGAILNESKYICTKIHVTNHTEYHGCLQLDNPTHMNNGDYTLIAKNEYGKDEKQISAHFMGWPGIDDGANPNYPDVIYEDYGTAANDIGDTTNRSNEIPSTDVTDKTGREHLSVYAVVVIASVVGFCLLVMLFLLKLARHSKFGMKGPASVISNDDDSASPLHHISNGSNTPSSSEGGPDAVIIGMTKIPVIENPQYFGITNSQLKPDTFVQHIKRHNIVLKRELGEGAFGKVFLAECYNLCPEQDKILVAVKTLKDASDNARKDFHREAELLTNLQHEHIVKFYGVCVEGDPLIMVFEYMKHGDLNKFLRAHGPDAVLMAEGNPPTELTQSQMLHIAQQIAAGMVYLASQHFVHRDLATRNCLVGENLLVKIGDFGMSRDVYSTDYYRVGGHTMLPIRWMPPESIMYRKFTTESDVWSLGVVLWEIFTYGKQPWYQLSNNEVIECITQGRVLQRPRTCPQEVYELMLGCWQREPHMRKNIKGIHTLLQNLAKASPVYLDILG

[14] = target: Dual specificity protein kinase CLK1 (Homo sapiens, UniProt P49759); experiment: inhibition of human CLK1 activity – biochemical, cherry-picked samples, selectivity assay for Dyrk1A inhibitor project, dose response (AID 588811)
Chain of Dual specificity protein kinase CLK1 (P49759 whole entry): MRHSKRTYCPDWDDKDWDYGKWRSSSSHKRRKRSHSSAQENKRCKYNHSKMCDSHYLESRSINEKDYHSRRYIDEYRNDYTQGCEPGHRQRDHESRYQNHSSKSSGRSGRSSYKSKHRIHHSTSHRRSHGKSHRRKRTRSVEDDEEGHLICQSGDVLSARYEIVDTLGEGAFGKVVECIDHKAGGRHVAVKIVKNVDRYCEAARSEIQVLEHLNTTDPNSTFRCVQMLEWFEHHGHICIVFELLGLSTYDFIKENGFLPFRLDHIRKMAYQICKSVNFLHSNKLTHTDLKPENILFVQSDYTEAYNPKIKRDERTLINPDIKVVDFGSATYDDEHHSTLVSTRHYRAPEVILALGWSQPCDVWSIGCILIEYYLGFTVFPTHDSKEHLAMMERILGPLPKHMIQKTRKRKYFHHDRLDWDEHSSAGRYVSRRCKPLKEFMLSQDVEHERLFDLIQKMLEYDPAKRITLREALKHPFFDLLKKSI

[15] = reduction of Shn3 3'UTR-driven luciferase in osteoblasts – cell-based, Clone20 osteoblasts, firefly luciferase, cherry-picked, dose response (AID 624132); type: functional;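 note: firefly luciferase luminescence from reporter carrying the Shn3 3'UTR in osteoblasts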
[16] = target: T5, High affinity choline transporter 1 (Homo sapiens, UniProt Q9GZV3); experiment: human choline transporter potentiators, potency – cell-based, 10-point CRC, membrane potential dye, dose response (AID 602376); type: functional
T5 sequence (Q9GZV3 whole entry): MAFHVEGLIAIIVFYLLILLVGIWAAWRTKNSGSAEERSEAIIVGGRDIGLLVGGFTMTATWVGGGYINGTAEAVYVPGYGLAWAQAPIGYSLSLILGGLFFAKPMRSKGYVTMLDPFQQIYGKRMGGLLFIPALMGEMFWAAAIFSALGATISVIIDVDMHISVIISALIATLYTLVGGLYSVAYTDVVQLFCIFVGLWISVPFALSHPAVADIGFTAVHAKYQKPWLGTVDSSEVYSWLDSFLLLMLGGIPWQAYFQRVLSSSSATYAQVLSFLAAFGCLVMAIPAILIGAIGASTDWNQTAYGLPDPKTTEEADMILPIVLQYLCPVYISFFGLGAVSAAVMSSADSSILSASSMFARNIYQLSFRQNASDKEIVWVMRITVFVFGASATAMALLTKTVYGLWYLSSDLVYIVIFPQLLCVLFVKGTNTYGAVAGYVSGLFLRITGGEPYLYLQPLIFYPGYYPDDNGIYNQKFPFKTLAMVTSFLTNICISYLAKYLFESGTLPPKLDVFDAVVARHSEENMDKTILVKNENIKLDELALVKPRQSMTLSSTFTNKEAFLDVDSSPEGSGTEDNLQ

[17] = loss of viability in HepG2 cells – cell-based, CellTiter-Glo, cherry-picked, cytotoxicity control for Shn3 inhibitor project, dose response (AID 624134); type: functional
[18] = non-specific 3'UTR reporter inhibition in Clone20-Shn3RL – cell-based, Renilla luciferase, cherry-picked, counter-screen for Shn3 inhibitor project, dose response (AID 624133); type: functional

Ki [11]: 3.16 µM (active) | Ki [12]: 2.51 µM (active) | Ki [13]: 3.16 µM (active)
SMILES: Clc1cccc(Nc2nc(N3CCOCC3)nc(-n3cccn3)n2)c1

AC50 [14]: 0.0113 µM (active)
SMILES: c1nc(NCC2CCCO2)c2cc(-c3ccc4c(c3)OCO4)ccc2n1 (stereo not given)

AC50 [14]: 0.00994 µM (active)
SMILES: Cc1ccsc1CNc1ncnc2ccc(-c3ccc4c(c3)OCO4)cc12

Second part, the compound before the results:

SMILES: O=C(NCc1ccco1)/C(=C\C=C\c1ccccc1)NC(=O)c1ccco1
IC50 [1]: > 67.5 µM (inactive) | IC50 (HEK293 [2]): > 67.5 µM (inactive)

SMILES: O=C(CSc1nc[nH]n1)CSc1nc[nH]n1
IC50 [3]: > 50 µM (inactive) | IC50 (Phosphomannomutase 2): > 100 µM (inactive) | IC50 [4]: 8.85 µM (active) | IC50 [5]: 0.373 µM (active) | IC50 [6]: 12.7 µM (active) | IC50 [7]: 7.33 µM (active)

SMILES: CC[C@]12c3[nH]c4ccc(OC)cc4c3CCN1C(=O)C(CC(=O)NCC13C[C@H]4C[C@@H](C1)C[C@@H](C3)C4)C[C@@H]2C(=O)N1CCN(C(=O)c2ccco2)CC1 (stereo not given in full)
EC50 (HEK293 [8]): > 59.6 µM (inactive) | EC50 (HEK293 [9]): > 59.6 µM (inactive) | IC50 [10]: 4.2 µM (active)

SMILES: CCN(CC)CCn1c(=N)n(CC(O)COc2cccc(C)c2)c2ccccc21 (stereo not given)
AC50 [15]: 4.39 µM (active) | EC50 [16]: 12.4 µM (active) | AC50 [17]: 21.2 µM (active) | AC50 [18]: 7.45 µM (active)

Source: ChEMBL document CHEMBL1201862, “PubChem BioAssay data set” (2004)
